Patent US20190192522A1, “INHIBITORS OF THE FIBROBLAST GROWTH FACTOR RECEPTOR 4 IN COMBINATION WITH CYCLIN-DEPENDENT KINASE INHIBITORS” (BLUEPRINT MEDICINES CORPORATION, priority 2016, published 2019)

Experiments:
[1] = system: Huh-7 liver cancer xenograft; assay: Huh-7 liver cancer xenograft efficacy study in female Balb/c nude mice; type: in vivo, Mus Musculus; conditions: day eighteen
Procedure: Each mouse was inoculated subcutaneously at the right flank with tumor cells (5×10^6) in 0.2 ml of PBS supplemented with Matrigel (50:50) for tumor development. The treatments were started on day 11 after tumor inoculation when the average tumor size reached approximately 183 mm^3. Each group consisted of nine tumor-bearing mice.
Tumor size was measured twice weekly in two dimensions using a caliper, and the volume was expressed in mm^3 using the formula: […]
where a and b are the long and short diameters of the tumor, respectively. The tumor size was then used to calculate TGI and T/C values.
TGI was calculated for each group using the formula: […]
where Ti is the average tumor volume of a treatment group on a given day; T0 is the average tumor volume of the treatment group on the day treatment began; Vi is the average tumor volume of the vehicle control group on the same day Ti was measured, and V0 is the average tumor volume of the vehicle group on the day treatment began. The T/C value (in percent) is an indication of antitumor effectiveness. T and C are the mean volumes of the treated and control groups, respectively, on a given day.
Summary statistics, including mean and the standard error of the mean (SEM), were provided for the tumor volume of each group at each time point. For tumor volume comparison among more than two groups, a one-way ANOVA was performed. For comparisons between two groups, a t-test was performed. All analysis was run in GraphPad Prism 5.0, with p<0.05 considered to be statistically significant.
For all groups, at four hours after last dosing, tumor samples were collected in less than one minute after the euthanasia. Four tumors in each group were snap frozen; four tumors were fixed and made into FFPE.

[2] = system: LIX-066 human primary hepatocellular carcinoma model; assay: In vivo efficacy study in LIX-066 xenograft model; design: species or system mice; conditions: bid, po, D28
Procedure: LIX-066 was a human primary hepatocellular carcinoma model from ChemPartner. 130 mice were implanted for this study. Two animals were designated as sentinels; 2 animals were designated as extras.
Animals were monitored daily by general clinical observation throughout the study period. Body weights were recorded twice weekly before randomization and recorded every day during dosing period and the dose was adjusted per body weight. Tumor areas (length×width) was measured two to three times per week by using digimatic callipers throughout the study period and tumor volumes were calculated based on the following formula: tumor volume=[…]. The tumor volume was then used for calculations of net tumor growth inhibition (TGIn) values. The TGIn (in percent) is the indication of anti-tumor activity. TGIn (%)=[1−avTi-0/avCi-0)]×100; avTi-0 is the average of the tumor volume of each mouse in the treatment group on a specific day minus the tumor volume of each mouse in the treatment group on the first day; avCi-0 is the average of the tumor volume of each mouse in the Vehicle control group on a specific day minus the tumor volume of each mouse in the Vehicle control group on the first day of treatment. Efficacy data was graphically represented as the mean tumor volume±standard error of the mean (SEM).
Based on about 40% take rate, 50 animals were selected for efficacy study when their tumors reach appropriate size (100-300 mm^3). Five animals were used for plasma PK standard control. All other animals were euthanized. The 50 animals were randomized (blocked randomization/using Excel software) and divided into the following groups for compound administration:
Group 1: N=10; Vehicle control (PEG400: 20% HP-γ-CD=3:2)
Group 2: N=10; Compound 1, 30 mg/kg, bid, po
Group 3: N=10; Compound 1, 100 mg/kg, bid, po […]
All animals were monitored daily for clinical observation (animal mortality, appearance, spontaneous activity, body posture, and food and water intake. Any lesions and adverse reactions were recorded). […]
The mice were euthanized and the tumor weights were measured without sampling.

Hep3B tumor = assay: In vivo efficacy study in Hep3B-FGF19 amplified mice; conditions: Compound 1 monotherapy
Procedure: (§1) A similar study as described above was carried out using Hep3B-FGF19 amplified mice. Tumor volume results are shown in (FIG. 10A). Compound 1 monotherapy induced Hep3B tumor shrinkage (100% regression, >20% CRs).

[3] = Tolerability in Hep3B and LIX-066 tumor models; type: in vivo
Procedure: All animals were monitored daily for clinical observation (animal mortality, appearance, spontaneous activity, body posture, and food and water intake. Any lesions and adverse reactions were recorded). Any animals showing signs of debilitation, marked body weight loss (>20%), cachexia or large tumors that would inhibit an animal's ability to eat and drink or mobility were euthanized immediately. Any animals with severely ulcerated, infected or severely hemorrhagic tumors, or tumors whose estimated weight exceed 20% of the body weight were euthanized.
as §1

[4] = Body weight in Huh-7 xenograft study; conditions: palbociclib 90 mg/kg group, day fourteen
Procedure: Female Balb/c nude mice (Mus Musculus) between six and eight weeks old and weighing 18 to 20 g were used to evaluate the therapeutic efficacy of palbociclib and Compound 1 as monotherapies and in combination in Huh-7 liver cancer xenograft models. The tumor cells were maintained in vitro as a monolayer culture in DMEM medium supplemented with 10% heat inactivated fetal bovine serum at 37° C. in a 5% CO2 atmosphere. The tumor cells were routinely subcultured twice weekly by trypsin-EDTA treatment. The cells growing in an exponential growth phase were harvested and counted for tumor inoculation.
Palbociclib treated animals were supplied with sunflower seeds to mitigate body weight loss on and after day eight per the sponsor's approval.

[5] = system: HCC cell lines with an intact FGFR4 signaling pathway (FGFR4, FGF19, and KLB); conditions: Hagel et al., Cancer Discovery (2015); cited from earlier work

C=CC(=O)N[C@H]1CCOC[C@H]1Nc1ncc2cc(-c3c(Cl)c(OC)cc(OC)c3Cl)ccc2n1 [Compound 1, N-((3S,4S)-3-((6-(2,6-dichloro-3,5-dimethoxyphenyl)quinazolin-2-yl)amino)tetrahydro-2H-pyran-4-yl)acrylamide]
T/C value ([1]; Compound 1 30 mg/kg bid): 57% | average tumor size ([1]; Compound 1 30 mg/kg bid): 1612 mm^3 | T/C value ([1]; Compound 1 100 mg/kg bid): 24% | average tumor size ([1]; Compound 1 100 mg/kg bid): 690 mm^3 | T/C value ([1]; Compound 1 200 mg/kg bid): 7% | average tumor size ([1]; Compound 1 200 mg/kg bid): 198 mm^3 | average tumor volume ([2]; Compound 1 30 mg/kg): 262.87 mm^3 | average tumor volume ([2]; Compound 1 100 mg/kg): 168.03 mm^3 | average tumor volume ([2]; Compound 1 200 mg/kg): 112.22 mm^3 | CRs (Hep3B tumor): > 20% | Hep3B tumor shrinkage (regression) (Hep3B tumor): 100% | tolerability [3]: well tolerated

CC(=O)c1c(C)c2cnc(Nc3ccc(N4CCNCC4)cn3)nc2n(C2CCCC2)c1=O [palbociclib, 6-acetyl-8-cyclopentyl-5-methyl-2-{[5-(1-piperazinyl)-2-pyridinyl]amino}pyrido[2,3-d]pyrimidin-7(8H)-one, reference compound]
T/C value ([1]; palbociclib 45 mg/kg): 71% | average tumor size ([1]; palbociclib 45 mg/kg): 1992 mm^3 | T/C value ([1]; palbociclib 90 mg/kg): 41% | average tumor size ([1]; palbociclib 90 mg/kg): 1169 mm^3 | body weight loss (same animal, euthanized) [4]: > 20%

C=CC(=O)Nc1cccc(C)c1Nc1ncc2cc(-c3c(Cl)c(OC)cc(OC)c3Cl)ccc2n1 [Compound 2, N-(2-((6-(2,6-dichloro-3,5-dimethoxyphenyl)quinazolin-2-yl)amino)-3-methylphenyl)acrylamide]
proliferation in HCC cell lines [5]: inhibit proliferation
